Reference: US12479905B2, “Peptide used for immunotherapeutics” (3H BIO. CO., LTD., priority 2020, dated 2025)
Non-standard residues stand in square brackets, D forms with d. No end group written: not given here. Cha = N[C@@H](CC1CCCCC1)C(=O)O; Ahx = NCCCCCC(=O)O

Experiments:
[1] = test system: RNVPPIFNDVYWIAF (SEQ ID NO: 6); experiment: Confirmation of antibody titer in serum by ELISA using the target antigen (Experimental Example 7); assay type: in vivo, C57BL/6J, male mice; details: serum at 11, 16 and 19 weeks of age; ELISA antigen SEQ ID NO: 6 only; administration at 8, 10, 12 and 14 weeks
Text: In order to determine whether the composition for in vivo administration administered in Experimental Example 1.7 induced an antibody against the B-cell epitope, a method for confirming the antibody titer using the target antigen is as follows. In particular, the target antigen is RNVPPIFNDVYWIAF (SEQ ID NO: 6) or ApoB100. The time to confirm the antibody titer may vary as needed, and the time was specifically described for each experimental example.
1-1) For each injection of a composition for in vivo administration into a test subject, collect about 200 μL of blood from the subject's tail vein one week after the injection.
1-2) After placing the collected blood at 4° C. for one hour, perform centrifugation of the blood sample at 14,000 rpm for 10 minutes to separate the serum, which is the supernatant.
1-3) Dilute the target antigen to a concentration of 50 μg/100 μL in coating buffer (0.05 M, bicarbonate, pH 9.6) and add the antigen to a 96-well plate in an amount of 50 μg per well, and allow them to react overnight at 4° C. so that the peptide is coated on the wall of the well.
1-4) Wash the target antigen-coated plate three times using 300 μL of phosphate buffered saline (PBS)-T (0.05% with Tween-20) per well.
2-1) Add 300 μL of a 0.5% casein blocking solution per well in the plate, and allow to react overnight at 4° C.
2-2) Wash the plate three times with 300 μL of PBS-T per well.
3-1) As the primary antibody reaction, dilute the separated serum to an appropriate concentration, add it in an amount of 100 μL per well, and allow to react at 37° C. for one hour. In particular, after the initial injection, subject the serum to serial dilution by diluting the same to 1/20 to 1/1,000 in the experiment, and 1/500 to 1/10,000 depending on the subject during the experiment after the second to third injections. As a positive control, use a monoclonal antibody against the peptide of SEQ ID NO: 41 after purification.
3-2) After the reaction of 3-1, wash the plate three times with 300 μL of PBS-T per well.
4-1) As a secondary antibody reaction, add 100 μL of horseradish peroxidase (HRP) conjugated to anti-mouse IgG antibody recognizing a mouse antibody per well, and allow them to react at 37° C. for one hour.
4-2) After the reaction of 4-1), wash the plate three times with 300 μL of PBS-T per well.
5-1) Add 100 μL of a o-phenylenediamine dihydrochloride (OPD) solution per well, and allow to react at 37° C. for 10 minutes, and measure the absorbance at OD 450 nm (Synergy HT microplate reader, BioTek).
Obtain the antibody titer in serum by converting the extinction coefficient, which is measured based on 1 mg/mL concentration of the monoclonal antibody against the target antibody as a positive control.
(2) According to Experimental Example 1.9, the antibody titers observed in a test subject for each experimental group at 11 weeks, 16 weeks, and 19 weeks were confirmed. In particular, the target antigen was determined using RNVPPIFNDVYWIAF (SEQ ID NO: 6).

[2] = Weight measurement of high-fat-diet mice after in vivo administration of peptide composition (Experimental Example 7); details: C57BL/6J male, high-fat diet after 10 weeks; intramuscular administration at 8, 10, 12 and 14 weeks of age; 50 μg peptide/100 μL with PHAD and Alhydrogel
Text: In order to test the effect of the composition for in vivo administration prepared in Experimental Example 1.5, C57BL/6, Balbc and/or ICR species were used as experimental mice (purchased from Central Lab Animal Inc.). Although there were some differences in species, the mice purchased were 7-week-old on average and they were acclimatized for one week, and were used for experiments when they were 8 weeks of age. Experimental mice were reared under the conditions of a constant temperature and humidity environment within the temperature range of 23±1° C., relative humidity of 50±5%, and an environment controlled as 12-hour light room/12 hour dark room. Drinking water and food were provided ad libitum. In the case of a normal diet (purchased from Central Lab Animal Inc.), it consisted of 20% protein, 70% carbohydrate, and 10% fat based on total calories, whereas in the case of an obesity-inducing diet (purchased from Research diets), it consisted of a high-fat diet including 20% protein, 20% carbohydrate, and 60% fat based on total calories. Experimental mice were divided into each group to have different dietary conditions and composition administration conditions, and experiments were performed with the number of individuals that could be statistically processed for each experimental group. Detailed conditions are as disclosed in each specific experimental example.
For a test subject prepared in Experimental Example 1.6, different compositions were administered for each experimental group. All administration compositions were administered by an intramuscular injection method, and after disinfecting muscles of both thighs of each mouse with an alcohol swab, 50 μL each with a total amount of 100 μL was injected.
From the time of arrival to the end of the experiment for each experimental group of mice, the average was calculated after measuring three times per week to obtain the average weight value for each week. After completion of the experiment, each mouse was anesthetized, organs were dissected, and weights were measured, and the average was obtained for each experimental group.
According to Experimental Example 1.7, the composition for in vivo administration was administered to the test subject. In particular, the administration cycle was as follows: 8 weeks, 10 weeks, 12 weeks, and 14 weeks of age.
(1) According to Experimental Example 1.8, the weight of a test subject for each experimental group was measured.

## GSHHHHHHGSDDDDKZaK(Cha)VAAWTLKAAaZRNVPPIFNDVYWIAF (GSHHHHHHGSDDDDK[Ahx][dA]K[Cha]VAAWTLKAA[dA][Ahx]RNVPPIFNDVYWIAF) [P3]
[1]
  antibody titer to RNVPPIFNDVYWIAF (SEQ ID NO: 6): observed
[2]
  weight loss effect compared to the control group (Obese): weight loss effect appeared

## KTTKQSFDLSVKAQYKKNKHZaK(Cha)VAAWTLKAAaZCRFRGLISLSQVYLS (KTTKQSFDLSVKAQYKKNKH[Ahx][dA]K[Cha]VAAWTLKAA[dA][Ahx]CRFRGLISLSQVYLS) [P4]
[2]
  weight loss effect compared to the control group (Obese): there was a weight loss effect

## RNVPPIFNDVYWIAFCRFRGLISLSQVYLSZaK(Cha)VAAWTLKAAaZ (RNVPPIFNDVYWIAFCRFRGLISLSQVYLS[Ahx][dA]K[Cha]VAAWTLKAA[dA][Ahx]) [P5]
[2]
  weight loss effect compared to the control group (Obese): a weight loss effect is observed

## RNVPPIFNDVYWIAFK(Cha)VAAWTLKAA (RNVPPIFNDVYWIAFK[Cha]VAAWTLKAA) [P8]
[1]
  antibody titer to RNVPPIFNDVYWIAF (SEQ ID NO: 6): shown
[2]
  weight loss effect compared to the control group (Obese): weight loss effect was shown

## RNVPPIFNDVYWIAFK(Cha)VAAWTLKAAHHHHHH (RNVPPIFNDVYWIAFK[Cha]VAAWTLKAAHHHHHH) [P9]
[1]
  antibody titer to RNVPPIFNDVYWIAF (SEQ ID NO: 6): observed
[2]
  weight loss effect compared to the control group (Obese): weight loss effect appeared

## RNVPPIFNDVYWIAFZaK(Cha)VAAWTLKAAaZ (RNVPPIFNDVYWIAF[Ahx][dA]K[Cha]VAAWTLKAA[dA][Ahx]) [P7]
[1]
  antibody titer to RNVPPIFNDVYWIAF (SEQ ID NO: 6): observed
[2]
  weight loss effect compared to the control group (Obese): weight loss effect appeared

## RNVPPIFNDVYWIAFZaK(Cha)VAAWTLKAAaZCRFRGLISLSQVYLS (RNVPPIFNDVYWIAF[Ahx][dA]K[Cha]VAAWTLKAA[dA][Ahx]CRFRGLISLSQVYLS) [P1]
[1]
  antibody titer to RNVPPIFNDVYWIAF (SEQ ID NO: 6): there were individuals showing a large antibody titer depending on the individual, and there were also individuals which showed no antibody titer
[2]
  weight loss effect compared to the control group (Obese): weight loss effect

## RNVPPIFNDVYWIAFZaK(Cha)VAAWTLKAAaZGSHHHHHHGSDDDDK (RNVPPIFNDVYWIAF[Ahx][dA]K[Cha]VAAWTLKAA[dA][Ahx]GSHHHHHHGSDDDDK) [P2]
[1]
  antibody titer to RNVPPIFNDVYWIAF (SEQ ID NO: 6): observed
[2]
  weight loss effect compared to the control group (Obese): weight loss effect appeared
